Columns and labels:
PRMT5 [1] = biological target: T1, PRMT5 (Homo sapiens, UniProt O14744); assay: PRMT5 biochemical IC50 assay with SAM as cofactor; settings: PRMT5, SAM as cofactor; read-out: SAM IC50
T1 construct: purchased Viva (custom protein)

PRMT5 [2] = biological target: T1, PRMT5; assay: PRMT5 biochemical IC50 assay with no cofactor; settings: PRMT5, no cofactor
Source text: Table 1 indicates IC50 values (μM) against PRMT5 for exemplary compounds in the presence of SAM as cofactor, with no cofactor, and with MTA as cofactor, respectively (columns 4-6). […] Ki values can be calculated from the IC50 values as described in the Examples section. As detailed in the Examples section, for the assay performed in the presence of SAM, IC50=Ki×1.5 (Ki=IC50/1.5).

PRMT5 [3] = biological target: T1, PRMT5; assay: PRMT5 biochemical IC50 assay with MTA as cofactor; settings: PRMT5, MTA as cofactor; read-out: MTA IC50
[4] = test system: HAP1 MTAP-intact cell line; assay: SDMA in-cell western assay, HAP1 MTAP-intact; format: cell-based; settings: Homo sapiens, HAP1, SDMA in-cell western, HAP1 MTAP-intact; read-out: MTAP HAP1 intact IC50
Outline: (§1)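 Isogenic HAP1 pair: the MTAP-intact line expresses endogenous MTAP, and the deleted line is MTAP-null. Symmetric dimethylarginine was detected by in-cell western and IC50 values derived for each line.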

[5] = test system: HAP1 MTAP-deleted cell line; assay: SDMA in-cell western assay, HAP1 MTAP-deleted; format: cell-based; settings: for IC50: Homo sapiens, HAP1, SDMA in-cell western, HAP1 MTAP-deleted; for MTAP intact/deleted ratio: IC50 ratio HAP1 MTAP-intact / HAP1 MTAP-deleted, SDMA in-cell western
Outline: as §1

[6] = test system: HAP1 MTAP-deleted cell line; assay: Viability assay, MTAP-deleted cell line; format: cell-based; settings: Homo sapiens, read-out: HAP1 MTAP deleted viability
Source text: Table 1 additionally indicates IC50 values in a viability assay for the MTAP-deleted cell line (column 10), indicating the effect of treatment with compound on cell survival.

[7] = read-out: HAP1 MTAP deleted IC50
[8] = HAP1, viability assay, MTAP-deleted cell line
[9] = read-out: No Cofactor/ rel IC50
[10] = read-out: HAP 1 MTAP deleted IC50
[11] = HAP1, viability, HAP1 MTAP-deleted cell line
[12] = HAP1, viability assay, HAP1 MTAP-deleted

T1 sequence (O14744 whole entry): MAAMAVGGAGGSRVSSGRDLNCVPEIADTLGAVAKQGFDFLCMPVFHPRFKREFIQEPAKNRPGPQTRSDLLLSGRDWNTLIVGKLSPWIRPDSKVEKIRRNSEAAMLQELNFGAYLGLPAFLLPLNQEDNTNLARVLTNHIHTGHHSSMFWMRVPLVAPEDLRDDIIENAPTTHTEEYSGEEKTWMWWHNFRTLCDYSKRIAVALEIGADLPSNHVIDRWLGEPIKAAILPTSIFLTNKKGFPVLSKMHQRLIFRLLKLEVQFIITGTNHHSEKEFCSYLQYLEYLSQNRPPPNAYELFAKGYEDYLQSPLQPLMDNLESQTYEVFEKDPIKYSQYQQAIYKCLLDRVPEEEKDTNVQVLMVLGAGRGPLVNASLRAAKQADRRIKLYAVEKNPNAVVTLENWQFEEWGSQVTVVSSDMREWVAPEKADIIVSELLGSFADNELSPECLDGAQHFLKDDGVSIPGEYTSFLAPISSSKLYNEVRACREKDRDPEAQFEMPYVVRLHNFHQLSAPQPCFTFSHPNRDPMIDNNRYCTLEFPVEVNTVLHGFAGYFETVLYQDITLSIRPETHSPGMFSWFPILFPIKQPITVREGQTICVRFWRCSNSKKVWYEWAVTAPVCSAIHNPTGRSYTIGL
T1 sequence (Q9BQA1 whole entry partner): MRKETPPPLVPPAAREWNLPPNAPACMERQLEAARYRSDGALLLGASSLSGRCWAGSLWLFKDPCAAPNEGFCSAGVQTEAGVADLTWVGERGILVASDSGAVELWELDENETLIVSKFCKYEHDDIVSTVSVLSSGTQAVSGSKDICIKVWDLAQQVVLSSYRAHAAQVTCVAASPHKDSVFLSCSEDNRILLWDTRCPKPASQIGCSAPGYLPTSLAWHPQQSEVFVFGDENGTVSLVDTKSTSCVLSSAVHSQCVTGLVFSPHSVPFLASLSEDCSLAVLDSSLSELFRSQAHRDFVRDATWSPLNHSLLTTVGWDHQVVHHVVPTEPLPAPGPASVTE

| IC50 (PRMT5 [1]) [µM] | IC50 (PRMT5 [2]; read-out: No Cofactor/rel IC50) [µM] | IC50 (PRMT5 [3]) [µM] | IC50 [4] [µM] | IC50 [5, 7] [µM] | IC50 (PRMT5 [2]; [9]) [µM] | IC50 [5, 10] [µM] | Compound | MTAP intact/deleted ratio [5] | IC50 [6, 8] [µM] | IC50 [6, 11] [µM] | IC50 [6, 12] [µM] | IC50 ([6]; HAP1, viability IC50, MTAP-deleted cell line) [µM] |
| --- | --- | --- | --- | --- | --- | --- | --- | --- | --- | --- | --- | --- |
| 0.05 to 0.5 | > 0.5 | < 0.05 | > 1 | < 0.1 |  |  | C[C@H]1CC[C@H](c2ccccc2)N(C(=O)C(=O)Nc2cncc(C(N)=O)c2)[C@H]1C (single isomer, unassigned) [Compound 433] | A (an IC50 ratio greater than or equal to 10 fold) | > 10 |  |  |  |
| 0.05 to 0.5 | > 0.5 | 0.05 to 0.5 | > 1 | > 1 |  |  | NC(=O)c1cncc(NC(=O)C(=O)N2CC[C@@H]3CCCC[C@@H]3C2)c1 (racemic) [Compound 429, 5-(2-(octahydroisoquinolin-2(1B)-yl)-2-oxoacetamido)nicotinamide] | B (an IC50 ratio greater than or equal to 3 fold but lower than 10 fold) | > 10 |  |  |  |
| < 0.05 |  | < 0.05 | 0.1 to 1 |  | < 0.05 | < 0.1 | CCc1cc(NC(=O)C(=O)N2C[C@@H](C)CC[C@@H]2c2cccc(OCCN3CCCC3)c2)cnc1N [Compound 1391, N-(6-amino-5-ethylpyridin-3-yl)-2-((2R,5)-5-methyl-2-(3-(2-(pyrrolidin-1-yl)ethoxy)phenyl)piperidin-1-yl)-2-oxoacetamide] | A (an IC50 ratio greater than or equal to 10 fold) |  | < 1 |  |  |
| 0.05 to 0.5 | 0.05 to 0.5 | 0.05 to 0.5 | > 1 | 0.1 to 1 |  |  | CC(=O)N1CCCC([C@@H]2CC[C@@H](C)CN2C(=O)C(=O)Nc2cnc(N)c(C)c2)C1 (mixture of isomers) [Compound 757, rac-2-[(2R,5S)-2-(1-acetyl-3-piperidyl)-5-methyl-1-piperidyl]-N-(6-amino-5-methyl-3-pyridyl)-2-oxo-acetamide] | B (an IC50 ratio greater than or equal to 3 fold but lower than 10 fold) |  |  | > 10 |  |
| 0.05 to 0.5 | < 0.05 | < 0.05 | 0.1 to 1 |  |  | < 0.1 | Cc1cc(NC(=O)C(=O)N2C[C@H](C)CC[C@H]2c2ccc3nn(C)cc3c2)cnc1N (single isomer, unassigned) [Compound 1044] | A (an IC50 ratio greater than or equal to 10 fold) | < 1 |  |  |  |
| 0.05 to 0.5 | 0.05 to 0.5 | < 0.05 | > 1 | < 0.1 |  |  | C[C@@H]1CC[C@@H](c2ccc(C(F)(F)F)cc2)N(C(=O)C(=O)Nc2cncc(C(N)=O)c2)C1 (racemic) [Compound 251, rac-5-{2-[(2R,5S)-5-Methyl-2-[4-(trifluoromethyl)phenyl]piperidin-1-yl]-2-oxoacetamido}pyridine-3-carboxamide] | A (an IC50 ratio greater than or equal to 10 fold) | 1 to 10 |  |  |  |
| 0.05 to 0.5 | 0.05 to 0.5 | < 0.05 | > 1 |  |  | 0.1 to 1 | Cc1cc(NC(=O)C(=O)N2C[C@H](C)CC[C@H]2[C@H]2CCC[C@H](O)C2)cnc1N (single isomer, unassigned) [Compound 559] | A (an IC50 ratio greater than or equal to 10 fold) |  |  |  | 1 to 10 |
| 0.05 to 0.5 |  | < 0.05 | 0.1 to 1 |  | < 0.05 | < 0.1 | CCc1cc(NC(=O)C(=O)N2C[C@@H](C)CC[C@@H]2c2ccc(N3CCN(C)CC3)cc2)cnc1N (single isomer, unassigned) [Compound 1371] | A (an IC50 ratio greater than or equal to 10 fold) |  | < 1 |  |  |
| 0.05 to 0.5 |  | < 0.05 | < 0.1 |  | < 0.05 | < 0.1 | CCc1cc(NC(=O)C(=O)N2C[C@@H](C)CC[C@@H]2c2ccc3sc(CN(C)C)nc3c2)cnc1N [Compound 1325, N-(6-amino-5-ethylpyridin-3-yl)-2-((2R,5S)-2-(2-((dimethylamino)methyl)benzo[d]thiazol-5-yl)-5-methylpiperidin-1-yl)-2-oxoacetamide] | A (an IC50 ratio greater than or equal to 10 fold) |  | < 1 |  |  |
| 0.05 to 0.5 |  | < 0.05 | < 0.1 |  | < 0.05 | < 0.1 | C[C@H]1CC[C@H](c2ccc3sc(CN(C)C)nc3c2)N(C(=O)C(=O)Nc2cnc(N)c(C3CC3)c2)C1 [Compound 1354, N-(6-Amino-5-cyclopropyl-3-pyridyl)-2-[(2R,5S)-2-[2-[(dimethylamino)methyl]-1,3-benzothiazol-5-yl]-5-methyl-1-piperidyl]-2-oxo-acetamide] | A (an IC50 ratio greater than or equal to 10 fold) |  | < 1 |  |  |
| 0.05 to 0.5 | 0.05 to 0.5 | < 0.05 | > 1 | < 0.1 |  |  | COc1ncc(NC(=O)C(=O)N2C[C@H](C)CC[C@H]2c2ccc(F)cc2)cc1C(N)=O (single isomer, unassigned) [Compound 446] | A (an IC50 ratio greater than or equal to 10 fold) | 1 to 10 |  |  |  |
| < 0.05 |  | < 0.05 | < 0.1 |  | < 0.05 | < 0.1 | CCc1cc(NC(=O)C(=O)N2C[C@@H](C)CC[C@@H]2c2ccc3sc([C@H]4C[C@@H](C)N(C)[C@@H](C)C4)nc3c2)cnc1N [Compound 1261, N-(6-amino-5-ethylpyridin-3-yl)-2-((2R,5S)-5-methyl-2-(2-((2R,4r,6S)-1,2,6-trimethylpiperidin-4-yl)benzo[d]thiazol-5-yl)piperidin-1-yl)-2-oxoacetamide] | A (an IC50 ratio greater than or equal to 10 fold) |  | < 1 |  |  |
| 0.05 to 0.5 | < 0.05 | < 0.05 | 0.1 to 1 | < 0.1 |  |  | CCc1cc(NC(=O)C(=O)N2C[C@H](C)CC[C@H]2c2ccc(C(N)=O)s2)cnc1N (single isomer, unassigned) [Compound 838] | A (an IC50 ratio greater than or equal to 10 fold) |  |  | < 1 |  |
| > 0.5 | > 0.5 | > 0.5 | > 1 |  |  | > 1 | COc1ncc(NC(=O)C(=O)N2C[C@@H](C)CC[C@@H]2c2ccc3[nH]c(C)nc3c2)cc1C(N)=O (single isomer, unassigned) [Compound 924] | B (an IC50 ratio greater than or equal to 3 fold but lower than 10 fold) | > 10 |  |  |  |
| 0.05 to 0.5 |  | 0.05 to 0.5 | > 1 |  | 0.05 to 0.5 | > 1 | Cc1cc(NC(=O)C(=O)N2CCCCC2c2cccnc2)cnc1N (stereo not drawn) [Compound 38, N-(6-Amino-5-methyl-3-pyridyl)-2-oxo-2-[2-(3-pyridyl)-1-piperidyl]acetamide] | B (an IC50 ratio greater than or equal to 3 fold but lower than 10 fold) | > 10 |  |  |  |
| > 0.5 | > 0.5 | > 0.5 | > 1 | > 1 |  |  | C[C@]1(F)CC[C@@H](c2ccccc2)N(C(=O)C(=O)Nc2cncc(C(N)=O)c2)C1 (single isomer, unassigned) [Compound 798, 5-(2-(5-fluoro-5-methyl-2-phenylpiperidin-1-yl)-2-oxoacetamido)nicotinamide] | C (an IC50 ratio of less than 3 fold) |  |  | > 10 |  |
| > 0.5 | > 0.5 | > 0.5 | > 1 | > 1 |  |  | C[C@H]1CC[C@H](c2cccc(N(C)C)c2)N(C(=O)C(=O)Nc2cncc(C(N)=O)c2)C1 (single isomer, unassigned) [Compound 374] | C (an IC50 ratio of less than 3 fold) | > 10 |  |  |  |
| > 0.5 | > 0.5 | > 0.5 | > 1 | > 1 |  |  | Cc1cc([C@@H]2CC[C@@H](C)CN2C(=O)C(=O)Nc2cncc(C(N)=O)c2)ccn1 (single isomer, unassigned) [Compound 519] | C (an IC50 ratio of less than 3 fold) | > 10 |  |  |  |
